13 compounds from US8338472B2, “Hexahydrocyclopentyl[F]indazole carboxamides and derivatives thereof as selective glucocorticoid receptor modulators” (Merck Sharp & Dohme Corp., priority 2008, dated 2012) can be followed below.

Molecules are shown by their SMILES. Where two headings read alike, the source gives them in different places.

For test [1], the target named is T1, glucocorticoid receptor (GR) (Homo sapiens, UniProt P04150).
T1 sequence (P04150 1-777): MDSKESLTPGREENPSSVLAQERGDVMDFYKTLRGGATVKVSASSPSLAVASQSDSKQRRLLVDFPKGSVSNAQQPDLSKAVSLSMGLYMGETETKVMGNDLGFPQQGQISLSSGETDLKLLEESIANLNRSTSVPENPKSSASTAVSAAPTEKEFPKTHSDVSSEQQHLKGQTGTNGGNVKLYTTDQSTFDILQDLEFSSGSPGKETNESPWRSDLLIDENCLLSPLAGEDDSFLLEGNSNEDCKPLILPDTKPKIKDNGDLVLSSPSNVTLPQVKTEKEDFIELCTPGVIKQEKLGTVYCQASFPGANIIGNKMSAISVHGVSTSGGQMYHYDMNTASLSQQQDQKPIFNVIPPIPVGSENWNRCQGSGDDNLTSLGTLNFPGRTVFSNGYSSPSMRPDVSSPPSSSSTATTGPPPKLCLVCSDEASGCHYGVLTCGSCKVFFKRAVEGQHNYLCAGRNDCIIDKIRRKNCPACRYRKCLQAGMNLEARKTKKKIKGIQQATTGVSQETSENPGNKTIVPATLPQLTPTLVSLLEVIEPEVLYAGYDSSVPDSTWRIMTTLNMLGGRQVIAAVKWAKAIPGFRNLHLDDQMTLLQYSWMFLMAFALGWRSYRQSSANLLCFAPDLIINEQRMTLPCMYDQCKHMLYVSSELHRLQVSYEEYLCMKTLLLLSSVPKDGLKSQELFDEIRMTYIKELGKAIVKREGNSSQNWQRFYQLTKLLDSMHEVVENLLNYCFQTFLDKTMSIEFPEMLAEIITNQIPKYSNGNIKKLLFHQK
As to the kind of experiment: Ligand binding assay (GR BIND), 3H-dexamethasone displacement in MDA-MB-453 cell lysate. Particulars: GR BIND Ki, Table 1.
Protocol: Binding Buffer: TEGM (10 mM Tris-HCl, 1 mM EDTA, 10% glycerol, 1 mM beta-mecaptoethanol, 10 mM Sodium Molybdate, pH 7.2)
50% HAP Slurry: Calbiochem Hydroxylapatite, Fast Flow, in 10 mM Tris, pH 8.0 and 1 mM EDTA.
Wash Buffer: 40 mM Tris, pH7.5, 100 mM KCl, 1 mM EDTA and 1 mM EGTA.
Dexmethasone-methyl-^3H, (DEX*); (Amersham cat# TRK645)
Dexamethasone(DEX) (Sigma, cat# D1756):
The cell pellet is washed twice with TEGM (10 mM Tris-HCl, 1 mM EDTA, 10% glycerol, 1 mM beta-mercaptoethanol, 10 mM Sodium Molybdate, pH 7.2). After the final wash, the cells are resuspended in TEGM at a concentration of 10^7 cells/mL. The cell suspension is snap frozen in liquid nitrogen or ethanol/dry ice bath and transferred to −80° C. freezer on dry ice. Before setting up the binding assay, the frozen samples are left on ice-water to just thaw (˜1 hr). Then the samples are centrifuged at 12,500 g to 20,000 g for 30 min at 4° C. The supernatant is used to set-up assay right away. If using 50 μL of supernatant, the test compound can be prepared in 50 μL of the TEGM buffer.
Procedure for Multiple Compound Screening
1×TEGM buffer is prepared, and the isotope-containing assay mixture is prepared in the following order: EtOH (2% final concentration in reaction), ^3H-DEX (Amersham Biosciences) and 1×TEGM. [e.g. For 100 samples, 200 μL (100×2) of EtOH+4.25 μL of 1:10 ^3H-Dex stock+2300 μL (100×23) 1×TEGM]. The compound is serially diluted, e.g., if starting final conc. is 1 μM, and the compound is in 25 μL of solution, for duplicate samples, 75 μL of 4×1 μM solution is made and 3 μL of 100 μM is added to 72 μL of buffer, and 1:5 serial dilution.
25 μL of ^3H-DEX (6 nM) trace and 25 μL compound solution are first mixed together, followed by addition of 50 μL receptor solution. The reaction is gently mixed, spun briefly at about 200 rpm and incubated at 4° C. overnight. 100 μL of 50% HAP slurry is prepared and added to the incubated reaction which is then vortexed and incubated on ice for 5 to 10 minutes. The reaction mixture is vortexed twice more to resuspend HAP while incubating reaction. The samples in 96-well format are then washed in wash buffer using The FilterMate™ Universal Harvester plate washer (Packard). The washing process transfers HAP pellet containing ligand-bound expressed receptor to Unifilter-96 GF/B filter plate (Packard). The HAP pellet on the filter plate is incubated with 50 μL of MICROSCINT (Packard) scintillint for 30 minutes before being counted on the TopCount microscintillation counter (Packard). IC50s are calculated using DEX as a reference.

Test [2] concerns the target T2, human GR (Homo sapiens, UniProt P04150).
T2 construct: U937 cells contain an endogenous glucocorticoid receptor (GR); endogenous in cells; host or cells: U937 cells stably transfected with the TNF-alpha promoter/beta-lactamase reporter
T2 sequence (P04150 1-777): T1 sequence (P04150 1-777)
As to the kind of experiment: Transrepression Assay (GITAR), TNFα-β-lactamase reporter gene in U937 cells. The class given is cell-based. Particulars: for GITAR Greater than by GRAMMER % SEP: GITAR Emax minus GRAMMER Emax; for EC50: inflection point, U937 cells, read-out: Transrepression U937 Cells GITAR IP. The method, boiled down:
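Repression of PMA (5 ng/ml final)/LPS (100 ng/ml final)-induced TNF-α promoter activity, read as β-lactamase cleavage of CCF2-AM, in stably transfected U937 cells expressing native GR. Compound added 30-45 min before stimulation, overnight (~18 hr) 37° C; normalized to 100 nM dexamethasone (100%).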

In test [3] the target is T3, Glucocorticoid Receptor (Homo sapiens, UniProt P04150).
T3 construct: These cells express large amount of the GR and are very responsive to GC treatment; endogenous in cells; host or cells: A549 cells transiently transfected with the MMTV-LUC reporter
T3 sequence (P04150 1-777): T1 sequence (P04150 1-777)
As to the kind of experiment: Trans-Activation Modulation of Glucocorticoid Receptor (GRAMMER), MMTV-LUC reporter gene in A549 cells. The class given is cell-based. Particulars: Table 1; for Emax: A549, A549 cells, Emax relative to 300 nM dexamethasone, read-out: Transactivation A549 Cells GRAMMER Emax; for EC50: inflection point, A549 cells, read-out: Transactivation A549 Cells GRAMMER IP. The method, boiled down: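 Luciferase from a transiently transfected MMTV-LUC reporter was measured after 24 h compound exposure (≤1% DMSO) in A549 or MDA-MB-453 cells. For antagonism, the decrease of 10 nM dexamethasone-induced signal was calculated. For agonism, Emax was referenced to 300 nM dexamethasone.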

[4] abbreviates: U-937, U937 cells, activity repressed by 100 nM dexamethasone = 100%, Table 1, read-out: Transrepression U937 Cells GITAR Emax.
[5] abbreviates: U-937, text statement, 100 nM dexamethasone = 100%, read-out: maximal activity in the transrepression assay (GITAR).

For the compound `C[C@]12Cc3cnn(-c4ccc(F)cc4)c3C=C1CC[C@@H]2C(=O)N(CCO)CCc1ccccc1` [Compound 35, (4αR,5S)-1-(4-fluorophenyl)-N-(2-hydroxyethyl)-4α-methyl-N-(2-phenylethyl)-1,4,4α,5,6,7-hexahydrocyclopenta[f]indazole-5-carboxamide], the Ki in test [1] was determined as 14.7 nM. In addition, in test [2] (Table 1), the “GITAR Greater than by GRAMMER % SEP” value worked out at 30.8%. Also, the Emax in test [2] (setting [4]) was 62.6%; in test [2] (setting [5]), greater than 5%; in test [3], 31.8%. Also, the values for the EC50 in test [2] (Table 1) and in test [3] were 945 nM and 2650 nM, respectively.
Regarding `C[C@]12Cc3cnn(-c4ccc(F)cc4)c3C=C1CC[C@@H]2C(=O)N(CCO)Cc1ccccc1` [Compound 36, (4αR,5S)-N-benzyl-1-(4-fluorophenyl)-N-(2-hydroxyethyl)-4α-methyl-1,4,4α,5,6,7-hexahydrocyclopenta[f]indazole-5-carboxamide], the affinity in test [1] corresponds to a Ki of 11.7 nM. Moreover, the “GITAR Greater than by GRAMMER % SEP” value in test [2] (Table 1) worked out at 54.9%. Besides, the Emax in test [2] (setting [4]) was 67.4%; in test [2] (setting [5]), greater than 5%; in test [3], 12.5%. The EC50 in test [2] (Table 1) is 1280 nM; in test [3] it was 872 nM.
`CCCN(CCO)C(=O)[C@H]1CCC2=Cc3c(cnn3-c3ccc(F)cc3)C[C@@]21C` [Compound 37, (4αR,5S)-1-(4-fluorophenyl)-N-(2-hydroxyethyl)-4α-methyl-N-propyl-1,4,4α,5,6,7-hexahydrocyclopenta[f]indazole-5-carboxamide] displayed a Ki in test [1] of 168 nM. The “GITAR Greater than by GRAMMER % SEP” value in test [2] (Table 1) stood at 31.3%. In addition, the Emax is 37% in test [2] (setting [4]), greater than 5% in test [2] (setting [5]) and 5.7% in test [3]. Besides, the figures for the EC50 in test [2] (Table 1) and in test [3] were 3420 nM and 2550 nM, respectively.
For the compound `CCCCCN(CCO)C(=O)[C@H]1CCC2=Cc3c(cnn3-c3ccc(F)cc3)C[C@@]21C` [Compound 38, (4αR,5S)-1-(4-fluorophenyl)-N-(2-hydroxyethyl)-4α-methyl-N-pentyl-1,4,4α,5,6,7-hexahydrocyclopenta[f]indazole-5-carboxamide], the Ki in test [1] turned out to be 14.6 nM. In addition, in test [2] (Table 1), the “GITAR Greater than by GRAMMER % SEP” value was determined as 47.3%. Moreover, the Emax in test [2] (setting [4]) was 84.7%; in test [2] (setting [5]), greater than 5%; in test [3], 37.5%. Moreover, the EC50 in test [2] (Table 1) came out at 739 nM; in test [3], 660 nM.
For the compound `CCCCN(CC=O)C(=O)[C@H]1CCC2=Cc3c(cnn3-c3ccc(F)cc3)C[C@@]21C` [Compound 39, (4αR,5S)-N-butyl-1-(4-fluorophenyl)-4α-methyl-N-(2-oxoethyl)-1,4,4α,5 ,6,7-hexahydrocyclopenta[f]indazole-5-carboxamide], the inhibitory constant (Ki) in test [1] came out at 4.4 nM. For the same compound, the “GITAR Greater than by GRAMMER % SEP” value in test [2] (Table 1) was found to be 67.4%. For the same compound, the Emax in test [2] (setting [4]) was 94.3%; in test [2] (setting [5]), greater than 5%; in test [3], 27%. In addition, the figures for the EC50 in test [2] (Table 1) and in test [3] were 125 nM and 535 nM, respectively.
`CCCCN(CC(C)O)C(=O)[C@H]1CCC2=Cc3c(cnn3-c3ccc(F)cc3)C[C@@]21C` (stereo partly drawn) [Compound 40, (4αR,5S)-N-butyl-1-(4-fluorophenyl)-N-(2-hydroxypropyl)-4α-methyl-1,4,4α,5,6,7-hexahydrocyclopenta[f]indazole-5-carboxamide] registered a Ki in test [1] of 5.1 nM. Besides, the “GITAR Greater than by GRAMMER % SEP” value in test [2] (Table 1) came to 20.4%. Moreover, the Emax was 86.8% in test [2] (setting [4]), greater than 5% in test [2] (setting [5]) and 66.4% in test [3]. The EC50 stood at 141 nM in test [2] (Table 1) and 108 nM in test [3].
The compound `CN(CC#N)C(=O)[C@H]1CCC2=Cc3c(cnn3-c3ccc(F)cc3)C[C@@]21C` [Compound 41, (4αR,5S)-N-(cyanomethyl)-1-(4-fluorophenyl)-N,4α-dimethyl-1,4,4α,5,6,7-hexahydrocyclopenta[f]indazole-5-carboxamide] showed a Ki in test [1] of 44.3 nM. Moreover, the “GITAR Greater than by GRAMMER % SEP” value in test [2] (Table 1) came to 35.4%. Also, the Emax in test [2] (setting [4]) was 41%; in test [2] (setting [5]), greater than 5%; in test [3], 5.6%. The EC50 in test [2] (Table 1) was determined as 2360 nM; in test [3], 4050 nM.
Consider `C[C@]12Cc3cnn(-c4ccc(F)cc4)c3C=C1CC[C@@H]2C(=O)N1CCC(C(F)(F)F)CC1` [Compound 42, (4αR,5S)-1-(4-fluorophenyl)-4α-methyl-5-{[4-(trifluoromethyl)piperidin-1-yl]carbonyl}-1,4,4α,5,6,7-hexahydrocyclopenta[f]indazole], for which the Ki in test [1] worked out at 21.2 nM. In addition, in test [2] (Table 1), the “GITAR Greater than by GRAMMER % SEP” value was 35.3%. Further, the Emax in test [2] (setting [4]) was 64.8%; in test [2] (setting [5]) it was greater than 5%; in test [3], 29.5%. Moreover, the EC50 in test [2] (Table 1) was 889 nM; in test [3], 419 nM.
The compound `COC[C@H]1CCCN1C(=O)[C@H]1CCC2=Cc3c(cnn3-c3ccc(F)cc3)C[C@@]21C` [Compound 43, (4αR,5S)-1-(4-fluorophenyl)-5-{[(2R)-2-(methoxymethyl)pyrrolidin-1-yl]carbonyl}-4α-methyl-1,4,4α,5,6,7-hexahydrocyclopenta[f]indazole] yielded an inhibition constant (Ki) in test [1] of 49.8 nM. In addition, the “GITAR Greater than by GRAMMER % SEP” value in test [2] (Table 1) came to 19.5%. The Emax is 21% in test [2] (setting [4]), greater than 5% in test [2] (setting [5]) and 1.5% in test [3]. The results for the EC50 in test [2] (Table 1) and in test [3] were 385 nM and 5000 nM, respectively.
`CN(C(=O)[C@H]1CCC2=Cc3c(cnn3-c3ccc(F)cc3)C[C@@]21C)C1CCCCC1` [Compound 44, (4αR,5S)-N-cyclohexyl-1-(4-fluorophenyl)-N,4α-dimethyl-1,4,4α,5,6,7-hexahydrocyclopenta[f]indazole-5-carboxamide] had a Ki in test [1] of 23.2 nM. The “GITAR Greater than by GRAMMER % SEP” value in test [2] (Table 1) was found to be 35.3%. In addition, the Emax is 38.5% in test [2] (setting [4]), greater than 5% in test [2] (setting [5]) and 3.2% in test [3]. The EC50 was found to be 1810 nM in test [2] (Table 1) and 398 nM in test [3].
`COCCN(Cc1ccc(OC)cc1)C(=O)[C@H]1CCC2=Cc3c(cnn3-c3ccc(F)cc3)C[C@@]21C` [Compound 45, (4αR,5S)-1-(4-fluorophenyl)-N-(4-methoxybenzyl)-N-(2-methoxyethyl)-4α-methyl-1,4,4α,5,6,7-hexahydrocyclopenta[f]indazole-5-carboxamide]: the Ki in test [1] was found to be 8.7 nM. Also, the “GITAR Greater than by GRAMMER % SEP” value in test [2] (Table 1) was 17.1%. Also, the figures for the Emax in test [2] (setting [4]), in test [2] (setting [5]) and in test [3] were 19.3%, greater than 5% and 2.2%, respectively. Further, the EC50 amounted to 158 nM in test [2] (Table 1) and 2140 nM in test [3].
On to `CN(Cc1cccc(C(F)(F)F)c1)C(=O)[C@H]1CCC2=Cc3c(cnn3-c3ccc(F)cc3)C[C@@]21C` [Compound 46, (4αR,5S)-1-(4-fluorophenyl)-N,4α-dimethyl-N-[3-(trifluoromethyl)benzyl]-1,4,4α,5 ,6,7-hexahydrocyclopenta[f]indazole-5-carboxamide], for which the affinity in test [1], expressed as Ki, was 17.6 nM. The “GITAR Greater than by GRAMMER % SEP” value in test [2] (Table 1) worked out at 12.7%. The Emax is 15.3% in test [2] (setting [4]), greater than 5% in test [2] (setting [5]) and 2.6% in test [3]. Further, the EC50 was found to be 87.4 nM in test [2] (Table 1) and 2410 nM in test [3].
In turn, `COc1cccc(CN(C)C(=O)[C@H]2CCC3=Cc4c(cnn4-c4ccc(F)cc4)C[C@@]32C)c1` [Compound 47, (4αR,5S)-1-(4-fluorophenyl)-N-(3-methoxybenzyl)-N,4α-dimethyl-1,4,4α,5,6,7-hexahydrocyclopenta[f]indazole-5-carboxamide] gave an inhibitory constant (Ki) in test [1] of 7.1 nM. Besides, in test [2] (Table 1), the “GITAR Greater than by GRAMMER % SEP” value is given as 20.4%. Moreover, the figures for the Emax in test [2] (setting [4]), in test [2] (setting [5]) and in test [3] were 27.8%, greater than 5% and 7.4%, respectively. Moreover, the EC50 in test [2] (Table 1) turned out to be 1690 nM; in test [3], 2020 nM.
